Experimental data taken from the supplement of paper PMC10627819.

Assays:
Assay in all cases: Bliss interaction score (quartile over a dose matrix) (fitness difference); higher = more antagonism (negative = synergy)
[1] = test system: S. pneumoniae D39V
Method in brief: (§1)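 The Bliss score is observed minus expected fitness, where expected fitness is the product of the single-drug fitness values inferred from the combination data. Fitness is the OD595 at the onset of stationary phase over the plate's robust no-drug mean, capped at 1. Scores are summarised by quartiles over technical, biological and donor/recipient replicates.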

[2] = test system: B. subtilis 168
Method in brief: as §1

[3] = test system: S. aureus Newman
Method in brief: as §1

[4] = test system: S. aureus DSM 20231
Method in brief: as §1
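Note: first quartile when negative (synergy) and third quartile when positive (antagonism).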

| SMILES | Bliss interaction score ([1]; main component drawn) | Bliss interaction score ([2]; main component drawn) | Bliss interaction score ([3]; main component drawn) | Bliss interaction score ([4]; main component drawn) | Bliss interaction score [1] | Bliss interaction score [2] | Bliss interaction score [3] | Bliss interaction score [4] |
| --- | --- | --- | --- | --- | --- | --- | --- | --- |
| C[C@H]1c2cccc(O)c2C(=O)C2=C(O)[C@]3(O)C(=O)C(C(N)=O)=C(O)[C@@H](N(C)C)[C@@H]3[C@@H](O)[C@@H]21 [Doxycycline] + CCCCCCCCCC(=O)N[C@@H]1[C@H]([C@@H]([C@H](O[C@H]1OC2=C3C=C4C=C2OC5=C(C=C(C=C5)[C@H]([C@H]6C(=O)N[C@@H](C7=C(C(=CC(=C7)O)OC8[C@H]([C@H]([C@@H]([C@H](O8)CO)O)O)O)C9=C(C=CC(=C9)[C@H](C(=O)N6)NC(=O)[C@@H]4NC(=O)[C@@H]1C2=CC(=CC(=C2)OC2=C(C=CC(=C2)[C@H](C(=O)N[C@H](CC2=CC(=C(O3)C=C2)Cl)C(=O)N1)N)O)O)O)C(=O)O)O[C@H]1[C@@H]([C@H]([C@@H]([C@H](O1)CO)O)O)NC(=O)C)Cl)CO)O)O [Teicoplanin] | -0.0489 | 0.0442 | 0.0478 | 0.118 |  |  |  |  |
| CC(=O)Oc1ccccc1C(=O)O [Acetylsalicylicacid] + CN1C2=CC=CC=C2N=C3C1=CC=CC3=O [Pyocyanin] |  |  |  |  | -0.0649 | -0.0887 | -0.0562 | -0.0748 |
| CN(C)[C@@H]1C(O)=C(C(N)=O)C(=O)[C@@]2(O)C(O)=C3C(=O)c4c(O)ccc(Cl)c4[C@@](C)(O)[C@H]3C[C@@H]12 [Clortetracycline] + CN[C@H](CC(C)C)C(=O)N[C@H]1C(=O)N[C@@H](CC(N)=O)C(=O)N[C@H]2C(=O)N[C@H]3C(=O)N[C@H](C(=O)N[C@H](C(=O)O)c4cc(O)cc(O)c4-c4cc3ccc4O)[C@H](O[C@H]3C[C@](C)(N)[C@@H](O)[C@H](C)O3)c3ccc(c(Cl)c3)Oc3cc2cc(c3O[C@@H]2O[C@H](CO)[C@@H](O)[C@H](O)[C@H]2O[C@H]2C[C@](C)(NCc3ccc(-c4ccc(Cl)cc4)cc3)[C@@H](O)[C@H](C)O2)Oc2ccc(cc2Cl)[C@H]1O [Oritavancin] |  |  |  |  | 0.073 | -0.0243 | 0.0708 | -0.0292 |
| N#CC(C#N)=NNc1cccc(Cl)c1 [CCCP] + CN(N=O)C(=O)N[C@@H](C=O)[C@@H](O)[C@H](O)[C@H](O)CO [Streptozotocin] |  |  |  |  | 0.0737 | 0.0172 | -0.0707 | -0.0689 |
| N#CC(C#N)=NNc1cccc(Cl)c1 [CCCP] + CO[C@H]1/C=C/O[C@@]2(C)Oc3c(C)c(O)c4c(O)c(c(/C=N/N5CCN(C)CC5)c(O)c4c3C2=O)NC(=O)/C(C)=C\C=C\[C@H](C)[C@H](O)[C@@H](C)[C@@H](O)[C@@H](C)[C@H](OC(C)=O)[C@@H]1C [Rifampicin] |  |  |  |  | 0.0879 | -0.0783 | 0.0395 | 0.0329 |
| CC(=O)Oc1ccccc1C(=O)O [Acetylsalicylicacid] + CO[C@@H]1[C@@H](OC(N)=O)[C@@H](O)[C@H](Oc2ccc3c(O)c(NC(=O)c4ccc(O)c(CC=C(C)C)c4)c(=O)oc3c2C)OC1(C)C [Novobiocin] |  |  |  |  | 0.123 | -0.146 | -0.0718 | -0.068 |
| CN(C)[C@@H]1C(O)=C(C(N)=O)C(=O)[C@@]2(O)C(O)=C3C(=O)c4c(O)ccc(Cl)c4[C@@](C)(O)[C@H]3C[C@@H]12 [Clortetracycline] + CCC[C@@H]1C[C@@H](C(=O)N[C@@H]([C@H]2O[C@H](SC)[C@H](O)[C@@H](O)[C@H]2O)[C@@H](C)O)N(C)C1 [Lincomycin] |  |  |  |  | 0.036 | 0.103 | -0.144 | -0.171 |
| CC1(C)S[C@@H]2[C@H](NC(=O)Cc3ccccc3)C(=O)N2[C@H]1C(=O)O [PenicillinG] + CC1=C\[C@@H](O)CC(=O)Cc2nc(co2)C(=O)N2CCC=C2C(=O)O[C@H](C(C)C)[C@H](C)/C=C/C(=O)NC\C=C\1 [Virginiamycin M1] |  |  |  |  | 0.099 | 0.0479 | 0.0409 | -0.0526 |
| CN(C)[C@@H]1C(O)=C(C(N)=O)C(=O)[C@@]2(O)C(O)=C3C(=O)c4c(O)ccc(Cl)c4[C@@](C)(O)[C@H]3C[C@@H]12 [Clortetracycline] + C[C@H]1c2cccc(O)c2C(=O)C2=C(O)[C@]3(O)C(=O)C(C(N)=O)=C(O)[C@@H](N(C)C)[C@@H]3[C@@H](O)[C@@H]21 [Doxycycline] |  |  |  |  | -0.0483 | -0.0687 | -0.0257 | -0.0625 |
| CC(=O)Oc1ccccc1C(=O)O [Acetylsalicylicacid] + CN(C)c1cc(NC(=O)CNC(C)(C)C)c(O)c2c1C[C@H]1C[C@H]3[C@H](N(C)C)C(O)=C(C(N)=O)C(=O)[C@@]3(O)C(O)=C1C2=O [Tigecycline] |  |  |  |  | -0.0515 | -0.11 | -0.0593 | -0.088 |
| CN(C)[C@@H]1C(O)=C(C(N)=O)C(=O)[C@@]2(O)C(O)=C3C(=O)c4c(O)ccc(Cl)c4[C@@](C)(O)[C@H]3C[C@@H]12 [Clortetracycline] + C[C@@H](O)[C@H]1C(=O)N2C(C(=O)O)=C(SCCNC=N)C[C@H]12 [Imipenem] |  |  |  |  | -0.0487 | 0.194 | 0.0268 | 0.039 |
| N#CC(C#N)=NNc1cccc(Cl)c1 [CCCP] + O=C(O)[C@H]1/C(=C/CO)O[C@@H]2CC(=O)N21 [Clavulanic] |  |  |  |  | 0.0476 | 0.0453 | 0.0274 | -0.315 |
| CC(=O)Oc1ccccc1C(=O)O [Acetylsalicylicacid] + C[C@@H](O)[C@H]1C(=O)N2C(C(=O)O)=C(SCCNC=N)C[C@H]12 [Imipenem] |  |  |  |  | 0.0958 | -0.34 | 0.0337 | 0.0498 |
| N#CC(C#N)=NNc1cccc(Cl)c1 [CCCP] + Cc1onc(-c2ccccc2)c1C(=O)N[C@@H]1C(=O)N2[C@@H]1SC(C)(C)[C@@H]2C(=O)O [Oxacillin] |  |  |  |  | 0.12 | 0.0476 | -0.0755 | 0.0876 |
| CN(C)[C@@H]1C(O)=C(C(N)=O)C(=O)[C@@]2(O)C(O)=C3C(=O)c4c(O)ccc(Cl)c4[C@@](C)(O)[C@H]3C[C@@H]12 [Clortetracycline] + CN(C)C(=O)C(CCN1CCC(O)(c2ccc(Cl)cc2)CC1)(c1ccccc1)c1ccccc1 [Loperamide] |  |  |  |  | 0.0856 | -0.221 | -0.0458 | 0.0792 |
| Cc1ncc([N+](=O)[O-])n1CCO [Metronidazole] + CC[C@H]1OC(=O)[C@H](C)C(=O)[C@H](C)[C@@H](O[C@@H]2O[C@H](C)C[C@H](N(C)C)[C@H]2O)[C@](C)(OC)C[C@@H](C)C(=O)[C@H](C)[C@H]2N(CCCCn3cnc(-c4cccnc4)c3)C(=O)O[C@]12C [Telithromycin] |  |  |  |  | 0.157 | 0.0709 | 0.0357 | 0.0599 |
| CO/N=C(\C(=O)N[C@@H]1C(=O)N2C(C(=O)O)=C(COC(N)=O)CS[C@H]12)c1ccco1 [Cefuroxime] + CC[C@H]1OC(=O)[C@H](C)C(=O)[C@H](C)[C@@H](O[C@@H]2O[C@H](C)C[C@H](N(C)C)[C@H]2O)[C@](C)(OC)C[C@@H](C)C(=O)[C@H](C)[C@H]2N(CCCCn3cnc(-c4cccnc4)c3)C(=O)O[C@]12C [Telithromycin] |  |  |  |  | 0.0493 | 0.0752 | 0.272 | -0.0813 |
| CN(C)[C@@H]1C(O)=C(C(N)=O)C(=O)[C@@]2(O)C(O)=C3C(=O)c4c(O)ccc(Cl)c4[C@@](C)(O)[C@H]3C[C@@H]12 [Clortetracycline] + C[C@H]1COc2c(N3CCN(C)CC3)c(F)cc3c(=O)c(C(=O)O)cn1c23 [Levofloxacin] |  |  |  |  | 0.0525 | 0.035 | 0.0876 | 0.115 |
| CN(C)[C@@H]1C(O)=C(C(N)=O)C(=O)[C@@]2(O)C(O)=C3C(=O)c4c(O)ccc(Cl)c4[C@@](C)(O)[C@H]3C[C@@H]12 [Clortetracycline] + Oc1cc(Cl)ccc1Oc1ccc(Cl)cc1Cl [Triclosan] |  |  |  |  | 0.117 | 0.0578 | 0.021 | -0.0936 |
| CC1(C)S[C@@H]2[C@H](NC(=O)Cc3ccccc3)C(=O)N2[C@H]1C(=O)O [PenicillinG] + COc1ccc(C[C@H](N)C(=O)N[C@H]2[C@@H](O)[C@H](n3cnc4c(N(C)C)ncnc43)O[C@@H]2CO)cc1 [Puromycin] |  |  |  |  | 0.0834 | 0.0536 | 0.0759 | -0.0369 |
| COc1cccc2c1C(=O)c1c(O)c3c(c(O)c1C2=O)C[C@@](O)(C(=O)CO)C[C@@H]3O[C@H]1C[C@H](N)[C@H](O)[C@H](C)O1 [Doxorubicin] + CC[C@H]1OC(=O)[C@H](C)[C@@H](O[C@H]2C[C@@](C)(OC)[C@@H](O)[C@H](C)O2)[C@H](C)[C@@H](O[C@@H]2O[C@H](C)C[C@H](N(C)C)[C@H]2O)[C@](C)(O)C[C@@H](C)C(=O)[C@H](C)[C@@H](O)[C@]1(C)O [Erythromycin] |  |  |  |  | 0.0705 | 0.0769 | 0.0828 | 0.0463 |
| CO/N=C(\C(=O)N[C@@H]1C(=O)N2C(C(=O)O)=C(COC(N)=O)CS[C@H]12)c1ccco1 [Cefuroxime] + CO[C@@]12[C@H](COC(N)=O)C3=C(C(=O)C(C)=C(N)C3=O)N1C[C@@H]1N[C@@H]12 [MitomycinC] |  |  |  |  | 0.0599 | -0.211 | -0.0903 | -0.0745 |
| CO/N=C(\C(=O)N[C@@H]1C(=O)N2C(C(=O)O)=C(COC(C)=O)CS[C@H]12)c1csc(N)n1 [Cefotaxime] + N[C@@H]1CONC1=O [CycloserineD] |  |  |  |  | -0.0787 | 0.0869 | 0.0643 | 0.0848 |
